#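 Following 48 hours of exposure in 96-well plates, responses at five concentrations were used to interpolate endpoints linearly. Abbreviation: GI50, concentration required for 50% inhibition of growth.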 Activity calls are given as the source filed them. No stated cut-off is given here; in the data, active = GI50 up to about 1.1 µM and inactive = higher.
# Columns and labels:
# Assay in all cases: DTP human tumour cell line panel, 48 h
# DLD-1 = test system: DLD-1
# DMS-114 = test system: DMS-114
# DMS-273 = test system: DMS-273
# HOP-18 = test system: HOP-18
# SNB-78 = test system: SNB-78
# XF498 = test system: XF498
# LXFL 529 = test system: LXFL 529
# M19-MEL = test system: M19-MEL
# RXF 631 = test system: RXF 631
SMILES,GI50 (DLD-1),GI50 (DMS-114),GI50 (DMS-273),GI50 (HOP-18),GI50 (SNB-78),GI50 (XF498),GI50 (LXFL 529),GI50 (M19-MEL),GI50 (RXF 631)
O=c1cc(O)ccn1C1C=C(CO)C(O)C1O (stereo not given),> 625 µM (inactive),> 625 µM (inactive),> 625 µM (inactive),> 625 µM (inactive),> 625 µM (inactive),< 0.0625 µM (active),–,–,–
Cc1c(/C=N/NC(=O)c2ccccc2O)c(=O)n(-c2ccccc2)n1C,> 100 µM (inactive),> 100 µM (inactive),58.5 µM (inactive),> 100 µM (inactive),> 100 µM (inactive),> 100 µM (inactive),> 100 µM (inactive),> 100 µM (inactive),–
N#C/C(=C\c1ccc(C(O)P(=O)(O)O)cc1)C(N)=O (stereo not given),> 100 µM (inactive),17.2 µM (inactive),> 100 µM (inactive),> 100 µM (inactive),> 100 µM (inactive),> 100 µM (inactive),> 100 µM (inactive),> 100 µM (inactive),> 100 µM (inactive)
CC1(O)CCC2(C#N)CCC1C2O (stereo not given),34 µM (inactive),16.2 µM (inactive),94.4 µM (inactive),> 100 µM (inactive),> 100 µM (inactive),> 100 µM (inactive),> 100 µM (inactive),> 100 µM (inactive),> 100 µM (inactive)
CCCCCNC(=O)c1c(O)[nH]c(=S)[nH]c1=O,–,60.7 µM (inactive),–,–,> 100 µM (inactive),–,> 100 µM (inactive),> 100 µM (inactive),> 100 µM (inactive)
COc1cc[n+](C)cc1,> 100 µM (inactive),> 100 µM (inactive),> 100 µM (inactive),> 100 µM (inactive),> 100 µM (inactive),> 100 µM (inactive),–,> 100 µM (inactive),–
COc1cc(-c2ccc(/N=N/c3c(S(=O)(=O)O)cc4cc(S(=O)(=O)O)cc(N)c4c3O)c(OC)c2)ccc1/N=N/c1c(S(=O)(=O)O)cc2cc(S(=O)(=O)O)cc(N)c2c1O,> 94 µM (inactive),73.1 µM (inactive),> 74.6 µM (inactive),–,78.3 µM (inactive),6.89 µM (inactive),–,> 100 µM (inactive),–

# — ChEMBL document CHEMBL1201862, “PubChem BioAssay data set” (2004)
